Where a SMILES comes first, the peptide text is derived from it. The star is where a group is joined. Cbz = O=C(OCc1ccccc1)*; CH2F = FC*
Experiments:
caspase-3/7 = test: Caspase-3/7 activity in the presence of Shield-1; type: cell-based, human; conditions: Day 2
Experimental: (§1) Therefore, the activity of caspase-3/7 in the presence of Shield-1 was then measured.

[1] = system: c-MYC-DD-2A-BMI1-introduced cells
Experimental: as §1

[2] = system: megakaryocytic progenitor cells; test: Expanding culture of c-Myc and BMI1-introduced cells with caspase inhibitor added in place of BCL-XL; type: cell-based, human; conditions: 30 μM added after c-Myc and BMI1 introduction; culture for 66 days
Experimental: In place of expressing BCL-XL, another method for controlling caspase was investigated as follows. After c-Myc and BMI1 were introduced, a caspase inhibitor, i.e., Z-VAD FMK (Merck) (10 μM or 30 μM) was added. In this condition, culture was continued for 66 days. When BCL-XL was expressed, the cells proliferated by 64 times; whereas when 30 μM of Z-VAD FMK was added, the cells proliferated by 21 times (FIG. 10). In contrast, when DMSO was used (negative control), no proliferation was observed. Furthermore, when DMSO was used, the number of Annexin V positive cells was counted. As a result, many Annexin V positive cells were present (66.5%). From this, it was confirmed that apoptosis was not suppressed.

| activity of caspase-3/7 (caspase-3/7) | SMILES | toxic effect [1] | number of megakaryocytic progenitor cells ([1]; c-MYC expression stabilized by adding Shield-1, Day 7) | cell proliferation [2] |
| --- | --- | --- | --- | --- |
| caspase was activated | CC[C@H](C(=O)N1CCCC[C@H]1C(=O)O[C@H](CCc1ccc(OC)c(OC)c1)c1cccc(OCCN2CCOCC2)c1)c1cc(OC)c(OC)c(OC)c1 [Shield-1] | did not have toxic effect | decreased in volume-dependent manner |  |
|  | COC(=O)C[C@H](NC(=O)[C@H](C)NC(=O)[C@@H](NC(=O)OCc1ccccc1)C(C)C)C(=O)CF [Z-VAD FMK] (Cbz-Val-Ala-Asp(OMe)-CH2F) |  |  | 21 times |
